Reference: US20080227655A1, “Assessment of effect of an agent on a human biological condition using rodent gene expression panels” (priority 2006, published 2008)
Several values for one entry are separate records, joined by “and”; a condition that tells them apart may be missing. Equal entries are not always repeated.

System: custom murine 40-gene Precision Profile for Rheumatoid Arthritis, whole blood
Assay: Collagen Induced Arthritis (CIA) model, whole blood gene expression by QPCR, vehicle or dexamethasone treatment
Type: in vivo, male DBA/1 mice
Description: Whole blood gene expression changes were evaluated in vehicle control and drug-treated murine subjects across two murine models of arthritis according to the following arthritis models:
KRN Transgenic Mouse (K/B×N): K/B×N serum from transgenic mouse used to induce arthritis in female BALB/c mice (n=54). Collagen Induced Arthritis (CIA): Bovine type II collagen used to induce arthritis in male DBA/1 mice (n=54).
In addition, naïve, untreated animal groups at baseline and terminal day were included to control for potential age-related changes in gene expression over the extended study periods. Animal groups, time-points, and treatment schedules are summarized in Tables 20A and 20B, respectively.
Whole blood samples from animals were collected by retro-orbital bleed at selected time-points in accordance with the arthritis study schemas described in […], and transferred into sample collection tubes containing a 1.5× lysis solution and RPMI. Samples were processed into total RNA and cDNA. […] It was anticipated from these murine models would provide a better understanding of the relevant molecular response of arthritis induction and their potential correlation to the human disease condition.
Normal murine subject reference values (represented as normalized Ct or ΔCt values) were established for male DBA/1 mice (n=6 for the CIA study arm) and female BALB/c mice (n=6 for the KRN study arm). In both arms of the study, gene expression response of normal (naïve, non-immunized and untreated) murine subjects were evaluated in groups of 6 each at day 0 and day 60 for the CIA study arm, and at day 0 and day 21 for the KRN study arm (see Tables 20A and 20B).
Gene expression responses for this arthritis-induced murine model were evaluated for untreated mice at day 24 and vehicle-treated mice at days 33, 42, and 60 to characterize disease progression.

[1] = CIA Day 42 Treated, group Average
[2] = CIA Day 42 Treated, group Average, whole blood
[3] = CIA Day 42 Treated, individual mice
[4] = CIA Day 42 Treated, individual mice, whole blood
[5] = CIA Day 60 Treated, group Average
[6] = CIA Day 60 Treated, group Average, whole blood
[7] = CIA Day 60 Treated, individual mice
[8] = CIA Day 60 Treated, individual mice, whole blood

C[C@@H]1C[C@H]2[C@@H]3CCC4=CC(=O)C=C[C@]4(C)[C@@]3(F)[C@@H](O)C[C@]2(C)[C@@]1(O)C(=O)CO [Dexamethasone]
CD19_M Normalized CT Value (Delta CT), Average [1]: 17.41 | CD32_M Normalized CT Value (Delta CT), Average [1]: 19.18 | CD86_M Normalized CT Value (Delta CT), Average [1]: 22.86 | CSPG2_M Normalized CT Value (Delta CT), Average [1]: 18.40 | F3_M Normalized CT Value (Delta CT), Average [1]: 24.19 | HMOX1—M Normalized CT Value (Delta CT), Average [1]: 17.42 | HSPA1A—M Normalized CT Value (Delta CT), Average [1]: 22.06 | ICAM1—M Normalized CT Value (Delta CT), Average [1]: 19.40 | IFI16_M Normalized CT Value (Delta CT), Average [1]: 18.56 | IL1A_M Normalized CT Value (Delta CT), Average [1]: 24.26 | IL1B_M Normalized CT Value (Delta CT), Average [1]: 14.10 | IL10_M Normalized CT Value (Delta CT), Average [1]: 25.70 | Normalized CT (Delta CT) IL1RAP_M [2]: 18.00 | Normalized CT (Delta CT) IL1RN—M [2]: 17.54 | Normalized CT (Delta CT) IL6_M [2]: 24.59 | Normalized CT (Delta CT) JUN_M [2]: 20.13 | Normalized CT (Delta CT) MEF2C—M [2]: 19.65 | Normalized CT (Delta CT) NFKB1—M [2]: 17.40 | Normalized CT (Delta CT) PADI4—M [2]: 17.97 | Normalized CT (Delta CT) PLA2G7—M [2]: 14.89 | ABCA1_M Normalized CT Value (Delta CT) [3]: 19.25 and 19.03 and 20.65 and 19.18 and 18.65 and 19.31 | APAF1_M Normalized CT Value (Delta CT) [3]: 20.34 and 19.23 and 20.02 and 18.89 and 19.10 and 20.01 | ARG2_M Normalized CT Value (Delta CT) [3]: 18.59 and 17.70 and 18.13 and 17.87 and 17.07 and 18.04 | CASP1_M Normalized CT Value (Delta CT) [3]: 19.07 and 17.95 and 20.08 and 18.16 and 18.00 and 18.03 | CASP3_M Normalized CT Value (Delta CT) [3]: 18.26 and 18.13 and 18.40 and 18.45 and 17.48 and 17.70 | CCR3_M Normalized CT Value (Delta CT) [3]: 19.92 and 18.94 and 19.77 and 19.05 and 19.94 | CD8A_M Normalized CT Value (Delta CT) [3]: 19.05 and 19.19 and 19.47 (2×) and 19.54 and 21.24 | CD14_M Normalized CT Value (Delta CT) [3]: 18.22 and 17.59 and 18.17 and 17.46 and 16.46 and 17.49 | CD19_M Normalized CT Value (Delta CT) [3]: 17.83 and 18.59 and 17.22 | CD32_M Normalized CT Value (Delta CT) [3]: 19.54 and 18.75 and 20.05 and 19.32 and 18.31 and 19.12 | CD86_M Normalized CT Value (Delta CT) [3]: 22.76 and 21.99 and 24.40 and 22.29 and 22.95 and 22.75 | CSPG2_M Normalized CT Value (Delta CT) [3]: 17.53 and 18.70 and 18.64 and 18.36 and 19.59 and 17.59 | F3_M Normalized CT Value (Delta CT) [3]: 21.92 and 24.08 and 25.50 and 24.56 and 23.94 and 25.11 | HMOX1—M Normalized CT Value (Delta CT) [3]: 15.87 and 17.25 and 18.49 and 17.66 and 17.84 and 17.40 | HSPA1A—M Normalized CT Value (Delta CT) [3]: 21.34 and 22.12 and 22.63 and 20.82 and 23.83 and 21.63 | ICAM1—M Normalized CT Value (Delta CT) [3]: 18.58 and 19.08 and 19.89 and 19.37 and 20.27 and 19.24 | IFI16_M Normalized CT Value (Delta CT) [3]: 17.87 and 17.97 and 18.60 and 18.06 and 20.80 and 18.04 | IL1A_M Normalized CT Value (Delta CT) [3]: 24.26 | IL1B_M Normalized CT Value (Delta CT) [3]: 13.49 and 14.12 and 14.22 and 14.25 and 14.38 and 14.15 | IL10_M Normalized CT Value (Delta CT) [3]: 25.44 (2×) and 25.71 and 25.64 and 25.84 and 26.13 | Normalized CT (Delta CT) IL1RAP_M [4]: 17.46 and 17.94 and 18.31 and 18.38 and 17.99 and 17.91 | Normalized CT (Delta CT) IL1RN—M [4]: 16.89 and 17.57 and 17.94 and 17.76 and 17.56 and 17.53 | Normalized CT (Delta CT) IL6_M [4]: 24.11 and 25.01 and 23.38 and 25.34 and 25.09 | Normalized CT (Delta CT) JUN_M [4]: 19.54 and 19.51 and 20.43 and 19.81 and 21.67 and 19.83 | Normalized CT (Delta CT) MEF2C—M [4]: 19.72 and 19.12 and 19.89 and 19.47 and 20.04 and 19.64 | Normalized CT (Delta CT) NFKB1—M [4]: 17.25 and 16.83 and 17.27 and 16.97 and 18.81 and 17.26 | Normalized CT (Delta CT) PADI4—M [4]: 17.57 and 18.02 and 17.98 (2×) and 18.35 and 17.91 | Normalized CT (Delta CT) PLA2G7—M [4]: 14.60 and 14.83 and 15.02 and 14.96 and 15.09 and 14.82 | ABCA1_M Normalized CT Value (Delta CT), Average [5]: 18.01 | APAF1_M Normalized CT Value (Delta CT), Average [5]: 18.94 | ARG2_M Normalized CT Value (Delta CT), Average [5]: 17.62 | CASP1_M Normalized CT Value (Delta CT), Average [5]: 18.09 | CASP3_M Normalized CT Value (Delta CT), Average [5]: 17.44 | CCR3_M Normalized CT Value (Delta CT), Average [5]: 20.02 | CD14_M Normalized CT Value (Delta CT), Average [5]: 17.08 | CD32_M Normalized CT Value (Delta CT), Average [5]: 18.46 | CD86_M Normalized CT Value (Delta CT), Average [5]: 22.22 | Normalized CT (Delta CT) IL1RAP_M [6]: 18.09 | Normalized CT (Delta CT) IL1RN—M [6]: 17.39 | Normalized CT (Delta CT) IL6_M [6]: 24.58 | Normalized CT (Delta CT) JUN_M [6]: 19.44 | Normalized CT (Delta CT) MEF2C—M [6]: 19.42 | Normalized CT (Delta CT) NFKB1—M [6]: 16.65 | Normalized CT (Delta CT) PADI4—M [6]: 18.36 | Normalized CT (Delta CT) PLA2G7—M [6]: 14.66 | ABCA1_M Normalized CT Value (Delta CT) [7]: 18.15 and 17.43 and 18.02 and 18.03 and 18.50 and 17.95 | APAF1_M Normalized CT Value (Delta CT) [7]: 18.90 and 18.40 and 19.28 and 18.97 and 19.36 and 18.75 | ARG2_M Normalized CT Value (Delta CT) [7]: 17.69 and 17.21 and 17.86 and 17.73 and 18.48 and 16.78 | CASP1_M Normalized CT Value (Delta CT) [7]: 17.78 and 17.53 and 18.19 and 18.75 and 18.66 and 17.61 | CASP3_M Normalized CT Value (Delta CT) [7]: 17.72 and 17.06 and 17.22 and 17.97 and 17.46 and 17.18 | CCR3_M Normalized CT Value (Delta CT) [7]: 20.33 and 18.57 and 20.17 and 20.39 and 21.29 and 19.38 | CD14_M Normalized CT Value (Delta CT) [7]: 17.31 and 16.84 (2×) and 17.24 and 17.32 and 16.92 | CD32_M Normalized CT Value (Delta CT) [7]: 18.41 and 17.86 and 18.35 and 18.90 and 18.54 and 18.72 | CD86_M Normalized CT Value (Delta CT) [7]: 22.26 and 21.38 and 22.48 and 22.41 and 22.40 and 22.37 | Normalized CT (Delta CT) IL1RAP_M [8]: 18.11 and 18.37 and 18.06 and 18.23 and 18.26 and 17.51 | Normalized CT (Delta CT) IL1RN—M [8]: 17.45 and 17.37 and 17.66 and 17.72 and 17.62 and 16.51 | Normalized CT (Delta CT) IL6_M [8]: 25.14 and 24.12 and 24.79 and 25.54 and 25.20 and 22.67 | Normalized CT (Delta CT) JUN_M [8]: 19.63 and 19.39 and 19.44 (2×) and 19.07 and 19.67 | Normalized CT (Delta CT) MEF2C—M [8]: 19.42 and 19.06 and 19.35 and 19.73 and 19.55 and 19.41 | Normalized CT (Delta CT) NFKB1—M [8]: 16.72 and 16.41 and 16.30 and 16.95 and 16.80 and 16.73 | Normalized CT (Delta CT) PADI4—M [8]: 18.90 and 18.59 and 18.29 and 18.10 and 18.41 and 17.84 | Normalized CT (Delta CT) PLA2G7—M [8]: 14.78 and 14.34 and 14.76 and 14.77 and 14.96 and 14.35 | Normalized CT (Delta CT), column 9, gene sub-head of this block not shown [8]: 24.31
